Experimental data from ChEMBL document CHEMBL2331133, “Inhibitory effect on NO production of triterpenes from the fruiting bodies of Ganoderma lucidum” (Bioorg Med Chem Lett, 2013).
Calls of active or inactive are those of the source. The rule behind the calls is not given here.

How the values were obtained:
RAW264.7 [1] = experiment: Cytotoxicity against LPS-stimulated mouse RAW264.7 cells assessed as cell viability at 50 uM after 24 hrs by MTT assay; assay type: cell-based; settings: raw264.7, 24 h
RAW264.7 [2] = experiment: Cytotoxicity against mouse RAW264.7 cells assessed as cell viability at 50 uM after 24 hrs by MTT assay; assay type: cell-based; settings: for Activity: mouse, raw264.7, 24 h, 50 µM
RAW264.7 [3] = experiment: Antiinflammatory activity in mouse RAW264.7 cells assessed as inhibition of LPS-induced nitric oxide production by Griess reaction method; assay type: functional, cell-based
RAW264.7 [4] = experiment: Inhibition of LPS-induced COX-2 expression in mouse RAW264.7 cells at 1 to 30 uM treated 30 mins before LPS challenge measured after 18 hrs by immunoblot analysis; assay type: functional, cell-based
RAW264.7 [5] = experiment: Inhibition of LPS-induced iNOS expression in mouse RAW264.7 cells treated 30 mins before LPS challenge measured after 18 hrs by immunoblot analysis; assay type: functional, cell-based

Structure (SMILES)	Activity (RAW264.7 [1])	Activity (RAW264.7 [2])	IC50 (RAW264.7 [3])	inhibition (RAW264.7 [4])	inhibition (RAW264.7 [5])	IC50 (RAW264.7 [2]; Mus musculus, RAW264.7, 24 h)
CC(C)[C@@H](C)/C=C/[C@@H](C)[C@H]1CC[C@H]2C3=CC[C@H]4C[C@@H](O)CC[C@]4(C)[C@H]3CC[C@]12C	Non-toxic	Non-toxic	–	–	–	–
CCCCOC(=O)CC[C@@H](C)[C@H]1CC(=O)[C@@]2(C)C3=C(C(=O)[C@@H](OC(C)=O)[C@]12C)[C@@]1(C)CCC(=O)C(C)(C)[C@@H]1CC3=O [BUTYL LUCIDENATE D2]	Non-toxic	Non-toxic	35 µM	–	–	–
CCCCOC(=O)CC[C@@H](C)[C@H]1CC(=O)[C@@]2(C)C3=C(C(=O)[C@@H](OC(C)=O)[C@]12C)[C@@]1(C)CC[C@H](O)C(C)(C)[C@@H]1CC3=O [BUTYL LUCIDENATE E2]	Non-toxic	Non-toxic	6.4 µM	Active	Dose-dependent effect	–
CCCCOC(=O)CC[C@@H](C)[C@H]1CC(=O)[C@@]2(C)C3=C(C(=O)C[C@]12C)[C@@]1(C)CC[C@H](O)C(C)(C)[C@@H]1C[C@@H]3O [BUTYL LUCIDENATE N]	Non-toxic	Non-toxic	4.5 µM	Active	Dose-dependent effect	–
CCCCOC(=O)CC[C@@H](C)[C@H]1CC(=O)[C@@]2(C)C3=C(C(=O)[C@@H](OC(C)=O)[C@]12C)[C@@]1(C)CC[C@H](O)C(C)(C)[C@@H]1C[C@@H]3O [BUTYL LUCIDENATE P]	Non-toxic	Non-toxic	7.4 µM	Active	Dose-dependent effect	–
CC(C)[C@@H](C)/C=C/[C@@H](C)[C@H]1CC[C@@H]2[C@]1(C)CC[C@H]1[C@]23C=C[C@]2(C[C@@H](O)CC[C@]12C)OO3 [ERGOSTEROL PEROXIDE]	Non-toxic	Non-toxic	9.4 µM	–	–	–
CC(C)[C@@H](C)/C=C/[C@@H](C)[C@H]1CC[C@H]2C3=CC=C4C[C@@H](O)CC[C@]4(C)[C@H]3CC[C@]12C [ERGOSTEROL]	Non-toxic	Non-toxic	–	–	–	–
C[C@H](CCC=C(CO)CO)[C@H]1CC[C@@]2(C)C3=CC[C@H]4C(C)(C)C(=O)CC[C@]4(C)C3=CC[C@]12C [GANODERIOL F]	Non-toxic	Non-toxic	36 µM	–	–	–
C[C@H](CC[C@@H](O)C(C)(C)O)[C@H]1CC[C@@]2(C)C3=CC[C@H]4C(C)(C)C(=O)CC[C@]4(C)C3=CC[C@]12C [GANODERMANONDIOL]	Non-toxic	Non-toxic	–	–	–	–
CCCCOC(=O)CC[C@@H](C)[C@H]1C[C@H](O)[C@@]2(C)C3=C(C(=O)C[C@]12C)[C@@]1(C)CCC(=O)C(C)(C)[C@@H]1C[C@@H]3O [LUCIDENATE Q]	–	–	4.3 µM	–	–	14 µM
COC(=O)C(C)CC(=O)C[C@@H](C)[C@H]1CC(=O)[C@@]2(C)C3=C(C(=O)[C@@H](OC(C)=O)[C@]12C)[C@@]1(C)CC[C@H](O)C(C)(C)[C@@H]1CC3=O (stereo partly specified) [METHYL GANODERATE H]	Non-toxic	Non-toxic	–	–	–	–
COC(=O)C(C)CC(=O)C[C@@H](C)[C@H]1C[C@H](O)[C@@]2(C)C3=C(C(=O)C[C@]12C)[C@@]1(C)CCC(=O)C(C)(C)[C@@H]1CC3=O (stereo partly specified) [METHYL GANODERATE J]	Non-toxic	Non-toxic	9.2 µM	–	–	–
COC(=O)CC[C@@H](C)[C@H]1CC(=O)[C@@]2(C)C3=C(C(=O)C[C@]12C)[C@@]1(C)CCC(=O)C(C)(C)[C@@H]1C[C@@H]3O [METHYL LUCIDENATE A]	Non-toxic	Non-toxic	–	–	–	–
COC(=O)CC[C@@H](C)[C@H]1CC(=O)[C@@]2(C)C3=C(C(=O)C[C@]12C)[C@@]1(C)CC[C@H](O)C(C)(C)[C@@H]1C[C@@H]3O [METHYL LUCIDENATE N]	Non-toxic	Non-toxic	–	–	–	–
